Assay results: BindingDB's records for patent US20250136608 (Cgenetech (Suzhou, China) Co., 2025)

Legend:
[1] = target: Tyrosine-protein kinase JAK2 (Homo sapiens, UniProt O60674); assay: JAK2 Kinase Inhibitory Activity Assay
[2] = target: T1, Tyrosine-protein kinase JAK3 (Homo sapiens, UniProt P52333); assay: JAK3 Kinase Inhibitory Activity Assay
T1 sequence (P52333 whole entry): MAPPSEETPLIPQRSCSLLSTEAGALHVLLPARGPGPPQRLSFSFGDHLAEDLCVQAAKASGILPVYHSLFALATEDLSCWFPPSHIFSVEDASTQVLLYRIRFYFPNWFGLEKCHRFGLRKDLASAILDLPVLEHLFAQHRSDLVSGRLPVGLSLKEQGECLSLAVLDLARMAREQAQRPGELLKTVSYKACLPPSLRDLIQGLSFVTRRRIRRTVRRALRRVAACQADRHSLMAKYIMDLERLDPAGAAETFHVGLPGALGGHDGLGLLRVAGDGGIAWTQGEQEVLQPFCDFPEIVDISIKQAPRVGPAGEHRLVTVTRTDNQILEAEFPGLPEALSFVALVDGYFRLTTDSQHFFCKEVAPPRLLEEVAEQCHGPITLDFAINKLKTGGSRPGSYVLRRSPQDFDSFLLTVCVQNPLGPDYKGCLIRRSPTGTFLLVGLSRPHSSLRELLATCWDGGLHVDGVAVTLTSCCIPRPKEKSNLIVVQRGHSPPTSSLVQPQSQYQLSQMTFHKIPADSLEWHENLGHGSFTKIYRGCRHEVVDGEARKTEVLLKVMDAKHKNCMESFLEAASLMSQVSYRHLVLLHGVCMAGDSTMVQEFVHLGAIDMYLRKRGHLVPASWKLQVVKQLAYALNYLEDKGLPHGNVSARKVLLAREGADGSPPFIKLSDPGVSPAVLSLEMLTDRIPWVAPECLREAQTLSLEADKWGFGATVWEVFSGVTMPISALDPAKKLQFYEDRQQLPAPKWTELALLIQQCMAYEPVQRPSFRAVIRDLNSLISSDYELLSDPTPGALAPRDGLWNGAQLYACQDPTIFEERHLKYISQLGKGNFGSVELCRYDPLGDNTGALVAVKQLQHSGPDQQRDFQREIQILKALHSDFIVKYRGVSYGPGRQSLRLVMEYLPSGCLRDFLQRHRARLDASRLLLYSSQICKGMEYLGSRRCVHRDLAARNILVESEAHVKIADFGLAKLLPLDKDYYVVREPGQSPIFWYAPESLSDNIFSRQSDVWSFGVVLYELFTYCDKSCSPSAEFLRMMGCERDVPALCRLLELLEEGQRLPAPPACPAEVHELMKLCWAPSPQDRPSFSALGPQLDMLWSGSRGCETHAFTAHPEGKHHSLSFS

Sequence of Tyrosine-protein kinase JAK2 (O60674 whole entry): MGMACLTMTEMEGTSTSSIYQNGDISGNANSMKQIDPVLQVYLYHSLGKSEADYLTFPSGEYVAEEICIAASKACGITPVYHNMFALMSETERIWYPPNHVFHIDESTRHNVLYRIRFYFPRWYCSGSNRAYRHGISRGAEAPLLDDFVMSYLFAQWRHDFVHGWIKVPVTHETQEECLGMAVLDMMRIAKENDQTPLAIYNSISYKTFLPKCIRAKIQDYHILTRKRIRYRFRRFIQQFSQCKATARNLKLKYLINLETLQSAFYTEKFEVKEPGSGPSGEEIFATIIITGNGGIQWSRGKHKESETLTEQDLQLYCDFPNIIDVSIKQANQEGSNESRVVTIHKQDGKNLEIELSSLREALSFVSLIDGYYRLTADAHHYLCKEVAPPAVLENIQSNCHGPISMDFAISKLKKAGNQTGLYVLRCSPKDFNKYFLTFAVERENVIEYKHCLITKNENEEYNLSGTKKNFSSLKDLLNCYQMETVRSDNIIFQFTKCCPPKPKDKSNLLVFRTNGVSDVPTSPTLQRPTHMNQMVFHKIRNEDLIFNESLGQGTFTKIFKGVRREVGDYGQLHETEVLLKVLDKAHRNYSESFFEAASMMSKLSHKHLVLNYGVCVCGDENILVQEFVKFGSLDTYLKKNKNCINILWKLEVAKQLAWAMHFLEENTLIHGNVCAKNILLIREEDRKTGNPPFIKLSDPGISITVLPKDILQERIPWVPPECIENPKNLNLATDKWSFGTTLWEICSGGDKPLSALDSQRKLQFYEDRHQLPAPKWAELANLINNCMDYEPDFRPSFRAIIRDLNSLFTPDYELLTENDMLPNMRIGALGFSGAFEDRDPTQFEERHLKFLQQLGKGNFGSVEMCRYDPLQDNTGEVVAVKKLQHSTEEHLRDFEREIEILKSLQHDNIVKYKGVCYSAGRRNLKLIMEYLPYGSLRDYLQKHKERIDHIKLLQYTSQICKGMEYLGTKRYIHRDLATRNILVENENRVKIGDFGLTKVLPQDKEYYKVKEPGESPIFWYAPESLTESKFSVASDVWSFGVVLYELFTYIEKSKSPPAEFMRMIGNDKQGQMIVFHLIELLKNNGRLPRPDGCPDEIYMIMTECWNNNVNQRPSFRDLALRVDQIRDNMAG

N#CCC1(n2cc(-c3ncnc4[nH]ccc34)cn2)CCC(F)(F)CC1 [US20250136608, Compound 1] showed an IC50 [1] of 0.0028 µM and an IC50 [2] of 0.241 µM.
